Columns and labels:
HepG2 cells = experiment: Gel-based ABPP, Cys labeling in live HepG2 cells; type: cell-based; details: 10 μM, three incubation time intervals
Protocol: In-Gel Fluorescence for Visualizing Cys Labeling by NAIAs and IAA in Live Cells
231MFP or HepG2 cells were grown in 10-cm plates in complete medium. At ca. 80% confluency, the cells were treated with DMSO solvent control, NAIA-4, NAIA-5, or IAA at indicated concentrations in complete medium for indicated time interval. The cells were then washed by DPBS and lysed by probe sonication in DPBS. Cell debris were removed by centrifugation at 1,000 g for 5 min. Protein concentration of the lysates was determined by BCA assay, and the lysates were diluted to 2 mg/mL by DPBS. 50 μL of the lysates were labeled with azide-fluor 545 by CuAAC according to the procedures described above. The samples were then added with 4× reducing Laemmli SDS sample loading buffer, boiled at 90° C. for 5 min, and separated by molecular weight on precast 4-20% TGX gels and scanned by ChemiDoc MP for measuring in-gel fluorescence. After that, the gel was stained with SimplyBlue™ SafeStain as described above, washed and scanned by ChemiDoc MP for imaging the blue staining.
In view of the success in labeling cysteines in cell lysates, we then proceeded to apply NAIA for capturing reactive cysteines in live cells. […] After protein assay and normalization, the protein samples were subjected to click reaction with azide-fluor 545, followed by SDS-PAGE and in-gel fluorescence measurement. […]

HepG2 cell lysates = experiment: Gel-based ABPP, in vitro Cys labeling of HepG2 cell lysates (in-gel fluorescence); type: biochemical
Protocol: In-Gel Fluorescence for Visualizing Cys Labeling by NAIAs and IAA In Vitro
HepG2 or 231MFP cells were lysed by probe sonication in DPBS, and cell debris were removed by centrifugation at 1,000 g for 5 min. Protein concentration of the lysates was determined by bicinchoninic acid (BCA) assay, and the lysates were then diluted to 2 mg/mL by DPBS. 50 μL of the lysates were incubated with indicated concentrations of NAIA-4, NAIA-5 or IAA for indicated time interval at room temperature. […] Samples were then separated by molecular weight on precast 4-20% TGX gels (Thermo Scientific) and scanned by ChemiDoc MP (Bio-Rad Laboratories, Inc) for measuring in-gel fluorescence. […]
With the in vitro characterization data in hand, we next moved to investigate the ability of NAIA in labeling functional cysteines in cell lysates and live cells. […] After the reaction, the protein mixture was resolved by sodium dodecyl sulphate-polyacrylamide gel electrophoresis (SDS-PAGE) and in-gel fluorescence was measured. […] The fluorescence intensity from these labeled protein bands can then reflect the degree of cysteine labeling by the probes. […]

C#CCCCCNC(=O)COc1ccc2c(ccn2C(=O)C=C)c1 [NAIA-5]
cysteine labeling in live cells (in-gel fluorescence) compared with IAA (HepG2 cells): better cysteine labeling than IAA at 10 μM for all the three incubation time intervals
cysteine labeling (in-gel fluorescence) compared with IAA, time-dependent (HepG2 cell lysates; 1 and 10 μM, 15 and 30 min): more cysteine labeling by NAIA-5 than IAA was found at 1 and 10 μM for both 15 and 30 min incubation
cysteine labeling (in-gel fluorescence) compared with IAA (HepG2 cell lysates; 1 h incubation, three doses): more cysteine labeling than IAA at all the three doses tested

Reference: patent US20240103005A1, “N-ACRYLOYLINDOLES AND METHODS OF USE” (The University of Hong Kong, priority 2022, published 2024)
